Consider 1 molecule from patent publication US11179348B2, “Combination comprising pterostilbene for the treatment of cancer” (FUNDACIÓN UNIVERSIDAD CATÓLICA DE VALENCIA SAN VICENTE …, priority 2015, dated 2021).

In one test the test system is B16-F1 melanoma. In words: In vivo growth of murine B16-F1 melanoma. As to conditions: B16-F1-RFP; 15 days after inoculation; Pter 30 mg/kg i.v. every 24 h, ± CRC. As for the experimental part:
FIG. 14. In vivo effect of Pter on tumor growth (A) and on corticosterone (B) and ACTH (C) levels in plasma of murine B16-F1 melanoma-bearing mice. Pter (30 mg/kg) was administered i.v. every 24 h for a period of 15 days, starting 3 days after tumor inoculation.

The test system of another test is SK-OV-3 cells. Kind of test: GSH levels and glutathione- and oxidative stress-related enzyme activities in SK-OV-3 cells growing in vivo. The note with it: SK-OV-3, in vivo Pter, day 49. On the set-up: species or system human. How it is done:
(§1) To measure enzyme activity, isolated tumor cells were homogenized in 0.1 M phosphate buffer (pH 7.2) at 4° C. GCL and GSS activities were measured as described previously (Obrador, E. et al. Hepatology 35, 74-81 (2002)). GPX (selenium dependent) activity was measured as described by Flohé and Gunzler (Flohe, L. & Gunzler, W. A. Methods Enzymol 105, 114-121 (1984)) using H2O2 as a substrate. GSR activity was determined as described by Akerboom and Sies (Akerboom, T. P. et al, Bull Eur Physiopathol Respir 17 Suppl, 221-227 (1981)). GGT activity was measured as described previously (Obrador, E. et al. Hepatology 35, 74-81 (2002)). GST activity was measured using an assay kit from Sigma. TXNRD activity, defined by the concentration of sodium-lipoate (disulfide) reduced to dehydrolipoate (dithiol) per milligram protein, was measured as previously described (Javvadi, P. et al. Cancer Res 70, 1941-1950 (2010)). SOD activity was measured as described by Flohé and Otting (Flohe, L. & Otting, F. Methods Enzymol 105, 93-104 (1984).) using 2 mM cyanide in the assay medium to distinguish mangano-type enzyme (SOD2) from the cuprozinc type (SOD1). CAT activity was analyzed as described by Aebi (Aebi, H. Methods Enzymol 105, 121-126 (1984)). NOX activity was measured by chemiluminescence following the methodology of Wind et al. (Wind, S. et al. Comparative pharmacology of chemically distinct NADPH oxidase inhibitors. Br J Pharmacol 161, 885-898 (2010)). Protein concentration was determined with the Pierce BCA protein assay (Fisher Scientific, Waltham, Mass.).
(§2) GSH, GSSG, NADP^+ and NADPH Determination.
(§3) GSH and GSSG were determined, following procedures previously described (Obrador, E. et al. PLoS One 9, e96466 (2014)), by LC/MS using the same equipment described above for pterostilbene determination. Cell processing was performed according to published methodology, where rapid N-ethylmaleimide derivatization was used to prevent GSH auto-oxidation (Asensi, M. et al. Anal Biochem 217, 323-328 (1994)). NADP^+ and NADPH were quantitated using an assay kit from Sigma (St. Louis, Mo.).
(§4) Isolation of Tumor Cells from Mouse Xenografts Using Enzymatic Digestion and a double Ficoll gradient.
(§5) To maximize the amount of isolated cells, avoiding the use of RFP-transfected cells and subsequent laser microdissection, an alternative methodology was set up. To maximize cell yield and viability the following combination of enzymes was used: collagenase III (200 U/ml; Sigma-Aldrich), DNase I (200 U/ml; Sigma-Aldrich) and trypsin (5 mg/ml; Invitrogen), and a non-enzymatic dissociation buffer (NEDB, Invitrogen). Briefly, mice were killed, and tumors were removed (avoiding skin, muscle and fat) into cold culture media and processed immediately. The tumors were minced into 1-3 mm fragments, which were then incubated with the dissociation solution (see above) for 30 min at 37° C. The tumor fragments were mixed up and down every 10 min using a […] micropipette with a tip cut to a diameter adapted to tissue fragment size. After each incubation period, the fragments were filtered through a […] nylon mesh cell strainer (BD Biosciences, San Diego, Calif., USA). The released cells were centrifuged at 1200 r.p.m. for 2 min and stored in cold CO2-independent medium with 30% FCS at […]. Fresh dissociation solution was added to the remaining tissue fragments for 30 min. Dissociation was stopped when no additional cells were released. The fragments were pushed through a sieve and all cells from all incubation periods were pooled and counted.
(§6) The dissociated cells were layered onto a double Ficoll gradient (Histopaque; Sigma-Aldrich; densities 1.077 and 1.119) and spun at 700 g for 30 min at room temperature. Cells removed from both interfaces were pooled and washed two times in CO2-independent medium and stored at 4° C. Debris and red blood cell elimination was improved with the dual-density gradient. […]

The next test deals with LNCaP cells. Kind of test: GSH levels and glutathione- and oxidative stress-related enzyme activities in LNCaP cells growing in vivo. The arrangement: species or system human. The note with it: in vivo Pter, day 49. How it is done: as §1, §2, §3, §4, §5, §6

Marks after values point to notes of the source that are not given here.

For `COc1cc(/C=C/c2ccc(O)cc2)cc(OC)c1` [Pter, trans-3,5-dimethoxy-4′-hydroxystilbene], the Tumor vol. in the test with B16-F1 melanoma is reported as 790 ± 156* mm^3. Moreover, in the test on SK-OV-3 cells, the CAT worked out at 1.8 ± 0.4 mU/10^6 cells, the GCL was 18 ± 6 mU/10^6 cells, the GSH was 1.5 ± 0.7 nmol/10^6 cells and the GSS is reported as 1.6 ± 0.4 mU/10^6 cells. For the same molecule, in the test on SK-OV-3 cells, the GSSG came to 0.2 ± 0.05 nmol/10^6 cells, the SOD1 is 0.1 ± 0.03 U/10^6 cells and the SOD2 turned out to be 0.01 ± 0.005 U/10^6 cells. Moreover, in the test with LNCaP cells, the CAT is reported as 1.9 ± 0.5 mU/10^6 cells, the GCL came to 45 ± 14 mU/10^6 cells, the GSH is listed as 3.7 ± 1.5 nmol/10^6 cells and the GSS is on record as 4.0 ± 1.2 mU/10^6 cells. In addition, in the test on LNCaP cells, the GSSG is recorded as 0.12 ± 0.05 nmol/10^6 cells, the SOD1 is 0.5 ± 0.1 U/10^6 cells and the SOD2 was 0.01 ± 0.005 U/10^6 cells.
